According to article PMC3257585 (Journal of Medicinal Chemistry, 2011):

Tests used:
[1] = target: cKIT (Homo sapiens, UniProt P10721); assay: In vitro kinase selectivity panel; type: biochemical
[2] = target: PDGFRa (Homo sapiens, UniProt P16234); assay: In vitro kinase selectivity panel; type: biochemical
[3] = target: PIM1 (Homo sapiens, UniProt P11309); assay: Thermal stability shift assay; type: binding; conditions: Tm shift assay
[4] = target: T1, FLT3 (Homo sapiens, UniProt P36888); assay: In vitro kinase selectivity panel; type: biochemical
T1 sequence (P36888 27-993): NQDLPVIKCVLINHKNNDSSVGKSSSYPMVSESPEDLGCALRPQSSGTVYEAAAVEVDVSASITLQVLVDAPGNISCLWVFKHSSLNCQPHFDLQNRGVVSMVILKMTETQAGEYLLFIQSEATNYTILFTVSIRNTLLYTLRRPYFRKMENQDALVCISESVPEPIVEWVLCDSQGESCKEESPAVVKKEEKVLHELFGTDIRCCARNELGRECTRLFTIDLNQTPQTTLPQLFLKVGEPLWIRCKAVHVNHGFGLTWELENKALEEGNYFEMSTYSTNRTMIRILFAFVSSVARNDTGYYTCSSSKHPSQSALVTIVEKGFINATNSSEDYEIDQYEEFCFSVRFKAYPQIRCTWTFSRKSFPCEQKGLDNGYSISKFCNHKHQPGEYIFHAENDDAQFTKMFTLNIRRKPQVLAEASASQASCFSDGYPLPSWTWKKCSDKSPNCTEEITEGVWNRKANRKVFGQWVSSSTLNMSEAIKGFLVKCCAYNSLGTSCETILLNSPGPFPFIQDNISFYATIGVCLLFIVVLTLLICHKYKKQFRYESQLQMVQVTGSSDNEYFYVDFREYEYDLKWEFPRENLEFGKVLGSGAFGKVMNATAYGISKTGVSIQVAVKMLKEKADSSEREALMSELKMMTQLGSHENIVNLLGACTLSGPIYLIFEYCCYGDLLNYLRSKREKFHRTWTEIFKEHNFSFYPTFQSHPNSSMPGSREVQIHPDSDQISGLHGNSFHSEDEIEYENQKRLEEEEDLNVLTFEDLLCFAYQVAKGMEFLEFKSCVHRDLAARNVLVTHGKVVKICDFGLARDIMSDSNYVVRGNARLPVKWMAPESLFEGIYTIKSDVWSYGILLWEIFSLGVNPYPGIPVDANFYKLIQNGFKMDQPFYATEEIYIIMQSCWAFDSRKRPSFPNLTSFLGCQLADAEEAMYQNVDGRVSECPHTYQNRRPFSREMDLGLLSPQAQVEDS

[5] = target: BTKv2 (Homo sapiens, UniProt Q06187); assay: In vitro kinase selectivity panel; type: biochemical
BTKv2, sequence (Q06187 whole entry): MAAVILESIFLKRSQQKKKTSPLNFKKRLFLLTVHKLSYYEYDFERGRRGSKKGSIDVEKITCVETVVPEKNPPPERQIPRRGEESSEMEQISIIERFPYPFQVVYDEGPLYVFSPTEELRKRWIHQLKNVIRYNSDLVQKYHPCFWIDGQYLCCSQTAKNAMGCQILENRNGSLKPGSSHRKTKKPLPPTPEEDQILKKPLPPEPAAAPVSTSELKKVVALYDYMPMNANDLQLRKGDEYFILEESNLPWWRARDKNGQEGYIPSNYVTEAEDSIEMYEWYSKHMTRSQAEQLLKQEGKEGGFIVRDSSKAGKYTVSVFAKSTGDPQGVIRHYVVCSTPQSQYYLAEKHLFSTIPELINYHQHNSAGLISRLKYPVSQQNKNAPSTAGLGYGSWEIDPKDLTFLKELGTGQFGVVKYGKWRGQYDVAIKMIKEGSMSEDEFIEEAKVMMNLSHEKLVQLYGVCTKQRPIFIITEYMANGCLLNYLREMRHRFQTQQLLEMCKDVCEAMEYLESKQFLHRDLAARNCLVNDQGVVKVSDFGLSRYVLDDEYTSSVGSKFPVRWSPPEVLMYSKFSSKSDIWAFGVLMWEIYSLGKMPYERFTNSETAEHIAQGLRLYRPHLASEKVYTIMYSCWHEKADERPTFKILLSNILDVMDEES

[6] = tested on: phosphorylation of 4E-BP1; assay: Western blot of 4E-BP1 phosphorylation in MV4; type: cell-based, human; conditions: MV4;11 cells, 0–10 μM
[7] = target: CaMK2 (Homo sapiens, UniProt Q13555); assay: In vitro kinase selectivity panel; type: biochemical
CaMK2, sequence (Q13555 whole entry): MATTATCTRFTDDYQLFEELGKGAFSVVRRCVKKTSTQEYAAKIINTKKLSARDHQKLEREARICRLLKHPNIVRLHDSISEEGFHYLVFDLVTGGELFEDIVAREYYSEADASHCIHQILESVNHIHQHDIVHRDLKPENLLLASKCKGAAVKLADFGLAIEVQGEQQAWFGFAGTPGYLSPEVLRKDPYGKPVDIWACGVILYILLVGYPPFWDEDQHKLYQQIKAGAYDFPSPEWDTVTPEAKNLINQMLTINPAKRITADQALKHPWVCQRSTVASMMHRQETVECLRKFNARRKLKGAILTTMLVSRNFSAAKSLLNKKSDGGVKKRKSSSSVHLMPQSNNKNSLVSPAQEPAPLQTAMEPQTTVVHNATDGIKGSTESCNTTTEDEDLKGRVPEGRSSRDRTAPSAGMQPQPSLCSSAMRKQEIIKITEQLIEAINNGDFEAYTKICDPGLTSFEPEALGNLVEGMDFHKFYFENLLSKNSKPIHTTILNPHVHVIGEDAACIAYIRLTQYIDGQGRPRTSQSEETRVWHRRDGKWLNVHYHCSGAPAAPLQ

[8] = target: PKA (Homo sapiens, UniProt P17612); assay: In vitro kinase selectivity panel; type: biochemical
[9] = target: T2, PDK1v2 (Homo sapiens, UniProt O15530); assay: In vitro kinase selectivity panel; type: biochemical
T2 sequence (O15530 1-556): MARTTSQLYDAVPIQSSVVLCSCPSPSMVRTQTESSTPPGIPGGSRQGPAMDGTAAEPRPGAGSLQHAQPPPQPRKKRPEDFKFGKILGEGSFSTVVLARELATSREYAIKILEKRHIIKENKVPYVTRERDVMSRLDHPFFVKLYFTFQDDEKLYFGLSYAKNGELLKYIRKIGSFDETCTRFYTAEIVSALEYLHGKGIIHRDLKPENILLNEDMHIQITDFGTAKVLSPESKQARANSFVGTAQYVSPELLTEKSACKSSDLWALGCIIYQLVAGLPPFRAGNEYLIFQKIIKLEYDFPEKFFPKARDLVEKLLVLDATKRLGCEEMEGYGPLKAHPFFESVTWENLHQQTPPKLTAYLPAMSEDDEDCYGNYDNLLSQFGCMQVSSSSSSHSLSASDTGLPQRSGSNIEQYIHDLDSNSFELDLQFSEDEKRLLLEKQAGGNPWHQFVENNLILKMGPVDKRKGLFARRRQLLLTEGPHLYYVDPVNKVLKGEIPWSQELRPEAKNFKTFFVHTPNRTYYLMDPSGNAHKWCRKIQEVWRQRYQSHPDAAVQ

[10] = target: HER4 (Homo sapiens, UniProt Q15303); assay: In vitro kinase selectivity panel; type: biochemical
HER4, sequence (Q15303 26-1308): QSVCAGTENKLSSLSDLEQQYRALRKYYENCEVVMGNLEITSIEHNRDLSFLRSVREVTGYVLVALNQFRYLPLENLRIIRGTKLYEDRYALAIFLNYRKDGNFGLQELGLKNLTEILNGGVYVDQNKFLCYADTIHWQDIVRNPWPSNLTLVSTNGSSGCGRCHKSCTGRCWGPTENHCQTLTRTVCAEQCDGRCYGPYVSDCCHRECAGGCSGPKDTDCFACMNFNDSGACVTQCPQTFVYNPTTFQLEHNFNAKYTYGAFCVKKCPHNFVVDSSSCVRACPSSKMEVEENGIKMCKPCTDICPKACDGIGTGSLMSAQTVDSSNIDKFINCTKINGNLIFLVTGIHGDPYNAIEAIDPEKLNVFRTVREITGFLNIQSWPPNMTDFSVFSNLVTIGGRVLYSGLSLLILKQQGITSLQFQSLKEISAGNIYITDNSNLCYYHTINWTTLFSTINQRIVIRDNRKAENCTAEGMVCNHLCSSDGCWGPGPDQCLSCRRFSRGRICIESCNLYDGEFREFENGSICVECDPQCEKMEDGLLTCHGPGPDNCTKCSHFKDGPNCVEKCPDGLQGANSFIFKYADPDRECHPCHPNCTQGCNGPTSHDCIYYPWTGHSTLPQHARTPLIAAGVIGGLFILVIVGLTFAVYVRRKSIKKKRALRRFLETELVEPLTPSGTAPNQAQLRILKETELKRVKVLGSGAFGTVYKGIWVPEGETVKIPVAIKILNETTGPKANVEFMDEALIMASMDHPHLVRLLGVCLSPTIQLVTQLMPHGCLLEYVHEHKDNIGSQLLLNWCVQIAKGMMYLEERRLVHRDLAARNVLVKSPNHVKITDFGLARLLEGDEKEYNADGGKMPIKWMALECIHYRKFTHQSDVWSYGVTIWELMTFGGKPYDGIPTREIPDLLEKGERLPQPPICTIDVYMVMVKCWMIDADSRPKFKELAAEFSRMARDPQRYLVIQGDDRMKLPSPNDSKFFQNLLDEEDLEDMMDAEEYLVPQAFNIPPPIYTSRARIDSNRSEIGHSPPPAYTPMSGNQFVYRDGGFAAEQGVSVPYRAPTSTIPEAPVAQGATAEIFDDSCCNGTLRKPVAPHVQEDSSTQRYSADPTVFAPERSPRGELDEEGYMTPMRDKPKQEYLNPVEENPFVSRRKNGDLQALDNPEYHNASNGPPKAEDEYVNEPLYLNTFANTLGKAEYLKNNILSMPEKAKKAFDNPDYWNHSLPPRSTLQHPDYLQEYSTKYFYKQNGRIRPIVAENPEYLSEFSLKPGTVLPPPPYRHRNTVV

PIM1, sequence (P11309 whole entry): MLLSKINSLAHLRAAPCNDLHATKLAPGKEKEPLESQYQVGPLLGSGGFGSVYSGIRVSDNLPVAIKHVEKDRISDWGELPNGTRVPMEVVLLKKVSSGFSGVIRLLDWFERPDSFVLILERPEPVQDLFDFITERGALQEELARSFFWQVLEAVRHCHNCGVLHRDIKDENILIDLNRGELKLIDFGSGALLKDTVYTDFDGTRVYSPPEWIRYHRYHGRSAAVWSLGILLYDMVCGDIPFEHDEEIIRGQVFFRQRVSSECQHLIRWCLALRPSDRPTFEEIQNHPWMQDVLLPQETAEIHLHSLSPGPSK
cKIT, sequence (P10721 26-976): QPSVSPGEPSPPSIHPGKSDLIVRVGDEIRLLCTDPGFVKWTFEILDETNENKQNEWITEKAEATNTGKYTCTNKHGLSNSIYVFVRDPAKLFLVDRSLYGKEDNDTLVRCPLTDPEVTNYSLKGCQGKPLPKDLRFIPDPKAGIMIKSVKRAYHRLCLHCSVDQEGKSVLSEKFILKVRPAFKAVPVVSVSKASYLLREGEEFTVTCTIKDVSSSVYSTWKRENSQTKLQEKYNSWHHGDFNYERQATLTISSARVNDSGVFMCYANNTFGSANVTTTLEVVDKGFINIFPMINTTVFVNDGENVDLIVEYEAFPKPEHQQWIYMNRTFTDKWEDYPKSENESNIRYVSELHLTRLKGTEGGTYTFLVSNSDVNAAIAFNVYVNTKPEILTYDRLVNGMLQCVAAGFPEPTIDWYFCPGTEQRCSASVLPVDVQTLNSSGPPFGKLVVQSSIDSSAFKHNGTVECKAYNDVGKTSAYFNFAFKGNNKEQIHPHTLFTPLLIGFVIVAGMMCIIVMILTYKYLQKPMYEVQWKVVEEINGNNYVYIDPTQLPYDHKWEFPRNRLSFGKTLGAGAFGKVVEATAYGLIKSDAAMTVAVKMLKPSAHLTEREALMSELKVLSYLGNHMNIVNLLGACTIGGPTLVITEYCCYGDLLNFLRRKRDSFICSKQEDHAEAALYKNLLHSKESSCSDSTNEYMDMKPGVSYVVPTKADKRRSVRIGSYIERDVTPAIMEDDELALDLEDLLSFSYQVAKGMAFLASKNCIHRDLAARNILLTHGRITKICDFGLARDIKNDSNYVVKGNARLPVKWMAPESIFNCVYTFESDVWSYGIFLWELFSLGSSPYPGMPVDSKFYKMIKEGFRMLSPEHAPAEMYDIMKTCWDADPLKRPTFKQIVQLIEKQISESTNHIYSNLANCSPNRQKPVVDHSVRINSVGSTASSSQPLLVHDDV
PDGFRa, sequence (P16234 24-1089): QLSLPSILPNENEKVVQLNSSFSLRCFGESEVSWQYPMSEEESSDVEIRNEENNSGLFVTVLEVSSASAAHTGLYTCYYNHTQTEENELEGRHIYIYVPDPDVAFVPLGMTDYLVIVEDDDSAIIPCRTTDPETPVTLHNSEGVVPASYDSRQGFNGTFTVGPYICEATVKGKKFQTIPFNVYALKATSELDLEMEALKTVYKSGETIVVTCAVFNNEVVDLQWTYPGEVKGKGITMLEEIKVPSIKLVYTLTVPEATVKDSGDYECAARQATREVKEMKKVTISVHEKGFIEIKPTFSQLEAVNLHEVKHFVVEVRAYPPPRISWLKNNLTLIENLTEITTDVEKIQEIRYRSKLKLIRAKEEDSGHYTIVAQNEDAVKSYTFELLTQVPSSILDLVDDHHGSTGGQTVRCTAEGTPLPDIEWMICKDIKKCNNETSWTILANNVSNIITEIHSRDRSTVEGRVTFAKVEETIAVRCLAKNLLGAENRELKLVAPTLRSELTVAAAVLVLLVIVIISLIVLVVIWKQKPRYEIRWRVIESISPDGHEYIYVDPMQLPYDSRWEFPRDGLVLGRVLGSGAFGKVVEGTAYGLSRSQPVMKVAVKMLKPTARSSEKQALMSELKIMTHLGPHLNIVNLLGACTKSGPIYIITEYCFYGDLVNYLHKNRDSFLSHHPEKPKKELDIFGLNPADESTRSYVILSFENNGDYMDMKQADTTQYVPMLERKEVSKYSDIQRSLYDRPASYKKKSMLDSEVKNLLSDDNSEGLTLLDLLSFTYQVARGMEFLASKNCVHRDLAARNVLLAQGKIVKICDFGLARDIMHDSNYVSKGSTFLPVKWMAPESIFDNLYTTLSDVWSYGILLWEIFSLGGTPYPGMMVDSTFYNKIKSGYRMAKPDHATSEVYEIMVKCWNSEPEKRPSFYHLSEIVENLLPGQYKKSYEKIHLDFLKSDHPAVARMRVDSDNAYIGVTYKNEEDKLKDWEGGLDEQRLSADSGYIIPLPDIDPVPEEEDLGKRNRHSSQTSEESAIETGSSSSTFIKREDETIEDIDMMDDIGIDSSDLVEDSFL

| Molecule | activity against KIT (in words) [1] | activity against PDGFRα (in words) [2] | activity against PIM1 (in words) [3] | activity against FLT3 (in words) [4] | also measured |
| --- | --- | --- | --- | --- | --- |
| CN1CCC2(CC1)NC(=O)c1c(c3ccc(Cl)c(Cl)c3n1C)C2C#N (racemic) [Compound 17, (4′RS)-7′,8′-Dichloro-1,9′-dimethyl-1′-oxo-1′,2′,4′,9′-tetrahydrospiro[piperidine-4,3′-pyrido[3,4-b]indole]-4′-carbonitrile] | did not exhibit any significant activity | did not exhibit any significant activity | highly potent inhibitors | did not exhibit any significant activity |  |
| Cn1c2c(c3ccc(Cl)c(Cl)c31)C(C#N)C1(CCNCC1)NC2=O (racemic) [Compound 20, (4′RS)-7′,8′-Dichloro-9′-methyl-1′-oxo-1′,2′,4′,9′-tetrahydrospiro[piperidine-4,3′-pyrido[3,4-b]indole]-4′-carbonitrile] | did not exhibit any significant activity | did not exhibit any significant activity | highly potent inhibitors | did not exhibit any significant activity | IC50 [5]: > 10 µM; phosphorylation of 4E-BP1 [6]: dose-dependent decrease; IC50 [7]: < 0.1 µM; IC50 [8]: < 0.1 µM; IC50 [9]: > 10 µM; IC50 [10]: > 10 µM |
| (4RS)-N-[(7,8-Dichloro-3,3-dimethyl-1-oxo-2,3,4,9-tetrahydro-1H-pyrido[3,4-b]indol-4-yl)methyl]acetamide [Compound 24] |  |  | complete loss of activity |  |  |

Further lines, with some results ahead:

| activity against KIT (in words) [1] | activity against PDGFRα (in words) [2] | activity against PIM1 (in words) [3] | activity against FLT3 (in words) [4] | Molecule | also measured |
| --- | --- | --- | --- | --- | --- |
|  |  | highly potent inhibitors |  | CCN1CCC2(CC1)NC(=O)c1c(c3ccc(Cl)c(Cl)c3n1C)C2C#N (racemic) [Compound 18, (4′RS)-7′,8′-Dichloro-1-ethyl-9′-methyl-1′-oxo-1′,2′,4′,9′-tetrahydrospiro[piperidine-4,3′-pyrido[3,4-b]indole]-4′-carbonitrile] |  |
|  |  | did not exhibit any inhibitory potency |  | Cn1c2c(c3ccc(Cl)c(Cl)c31)C(C#N)C1(CCN(C(=O)OC(C)(C)C)CC1)NC2=O (racemic) [Compound 19, (4′RS)-tert-Butyl 7′,8′-Dichloro-4′-cyano-9′-methyl-1′-oxo-1′,2′,4′,9′-tetrahydrospiro[piperidine-4,3′-pyrido[3,4-b]indole]-1-carboxylate] |  |
